Results as given in ChEMBL document CHEMBL1649192, “Dynamics of malaria drug resistance patterns in the Amazon basin region following changes in Peruvian national treatment policy for uncomplicated malaria” (Antimicrob Agents Chemother, 2009).

Assays:
Plasmodium falciparum [1] = assay: Antimicrobial activity against Plasmodium falciparum harboring NGFSDD genotype after 72 hrs by SYBR green I assay
Plasmodium falciparum [2] = assay: Antimicrobial activity against Plasmodium falciparum harboring CVMNT genotype after 72 hrs by SYBR green I assay
Plasmodium falciparum [3] = assay: Antimicrobial activity against Plasmodium falciparum harboring SVMNT genotype after 72 hrs by SYBR green I assay

SMILES	IC50 (Plasmodium falciparum [1])	IC50 (Plasmodium falciparum [2])	IC50 (Plasmodium falciparum [3])
OC(c1cc(C(F)(F)F)nc2c(C(F)(F)F)cccc12)C1CCCCN1 (stereo not drawn) [MEFLOQUINE]	0.021 µM		
C=C[C@H]1CN2CC[C@H]1C[C@H]2[C@H](O)c1ccnc2ccc(OC)cc12 [QUININE]		0.066 µM	0.07 µM
